Test results as given in paper PMC4754833, “Rilpivirine analogs potently inhibit drug-resistant HIV-1 mutants” (Retrovirology, 2016).

Tests used:
HIV-1 RT mutant G190A = assay: single round infection assay, G190A; type: cell-based; conditions: for IC50: Human immunodeficiency virus 1
Method: (§1) The human osteosarcoma cell line, HOS, was obtained from Dr. Richard Schwartz (Michigan State University, East Lansing, MI) and grown in Dulbecco’s modified Eagle’s medium (Invitrogen, Carlsbad, CA) supplemented with 5 % (v/v) fetal bovine serum, 5 % newborn calf serum, and penicillin (50 units/ml) plus streptomycin (50 µg/ml; Quality Biological, Gaithersburg, MD). Virion production and single-round infectivity assays were used to determine antiviral activity (IC50 values) of the compounds as previously described.
(§2) pNLNgoMIVR-ΔEnv.LUC has been described previously. The RT open reading frame was removed from pNLNgoMIVR-ΔEnv.LUC (digestion with SpeI and SalI) and inserted between the SpeI and SalI sites of pBluescript II KS+. Using that construct as the wild-type template, we prepared the following HIV-1 RT mutants using the QuikChange II XL (Stratagene, La Jolla, CA) site-directed mutagenesis protocol kit: L100I, K103N, Y181C, Y188L, H221Y, K103N/Y181C, G190A, G190S, M230L, P236L, L100I/K103N, K103N/P225H, V106A/G190A/F227L, V106A, L234I, V106A/F227L, V106A/L234I, V106A/F227L/L234I, E40K, D67E, K101E, V111A, E138K, M184I, M184V, K101E/M184I, K101E/M184V, E138K/M184I, E138K/M184V, K101P, Y181I, and K101P/V179I. The following sense oligonucleotides were used with matching cognate antisense oligonucleotides (not shown) (Integrated DNA Technologies, Coralville, IA) in the mutagenesis: L100I, 5′-[…]-3′; L100I 2-103, 5′-[…]-3′; K103N, 5′-[…]-3′; Y181C, 5′-[…]-3′; Y188L, 5′-[…]-3′; H221Y, 5′-[…]-3′; G190A, 5′-[…]-3′; G190S, 5′-[…]-3′; P225H, 5′-[…]-3′; F227, 5′-[…]-3′; M230L, 5′-[…]-3′; P236L, 5′-[…]-3′; V106A, 5′-[…]-3′; L234I, 5′-[…]-3′; E40K, 5′-[…]-3′; D67E, 5′-[…]-3′; K101E, 5′-[…]-3′; V111A, 5′-[…]-3′; E138K, 5′-[…]-3′; M184I, 5′-[…]-3′; M184V, 5′-[…]-3′; K101P, 5′-[…]-3′; Y181I, 5′-[…]-3′; K101P/V179I, 5′-[…]-3′. The double mutants K103N/Y181C, K103N/P225H, and L100I/K103N were made using the previously generated K103N mutant and the appropriate oligonucleotides to add the second mutation, Y181C, P225, and L100I respectively. The double mutants V106A/F227L and V106A/L234I were prepared using the previously generated V106A mutant and the appropriate oligonucleotides to add the second mutation, F227L and L234I, respectively. The double mutants K101E/M184I and K101E/M184V were constructed using the previously generated K101E mutant and the appropriate oligonucleotides to add the second mutation, M184I and M184V, respectively. The double mutants E138K/M184I and E138K/M184V were constructed using the previously generated E138K mutant and the appropriate oligonucleotides for the second mutation, M184I and M184V, respectively. The triple mutant V106A/F227L/L234I was made using the previously generated V106A/F227L double mutant and the appropriate oligonucleotides for the third mutation, L234I. The triple mutant V106A/G190A/F227L was constructed in a series of steps using the previously generated V106A mutant and the appropriate oligonucleotides for the second mutation, G190A, to generate the double mutant V106A/G190A, and then the triple mutant was made using double mutant V106A/G190A and oligonucleotides for the third mutation, F227L. The DNA sequence of each construct was verified by DNA sequence determination. The sequences encoding the mutant RTs were then subcloned into pNLNgoMIVR-ΔEnv.LUC (between the KpnI and SalI sites) to produce the mutant HIV-1 constructs. These DNA sequences were also checked independently by DNA sequence determination.
(§3) 10.1186/s12977-016-0244-2 The IC50 values (nM) of RPV and the RPV analogs were determined against the NNRTI resistant mutants were measured by using a single round infection assay, n = 4. The concentrations (nM) are measured by reductions in luciferase reporter activity followed by the standard deviations. […]

HIV-1 RT mutant M230L = assay: single round infection assay, M230L; type: cell-based; conditions: for IC50: Human immunodeficiency virus 1, M230L, ± SD, n=4, limit of detection 100 nM; for fold-change of IC50 of the mutant relative to WT: M230L vs WT
Method: as §1, §2, §3

[1] = tested on: HIV-1 RT mutant L100I/K103N; assay: single round infection assay, L100I/K103N; type: cell-based; conditions: for IC50: ± SD, n=4, limit of detection 100 nM; for fold-change of IC50 of the mutant relative to WT: L100I/K103N vs WT
Method: as §1, §2, §3

[2] = tested on: HIV-1 RT mutant K103N/P225H; assay: single round infection assay, K103N/P225H; type: cell-based; conditions: for IC50: Human immunodeficiency virus 1; for fold-change of IC50 of the mutant relative to WT: K103N/P225H vs WT
Method: as §1, §2, §3

HIV-1 RT mutant K101E = assay: single round infection assay, K101E; type: cell-based; conditions: for IC50: ± SD, n=4; for fold-change of IC50 of the mutant relative to WT: K101E vs WT
Method: as §1, §2, §3

HIV-1 RT mutant E138K = assay: single round infection assay, E138K; type: cell-based; conditions: for fold-change of IC50 of the mutant relative to WT: E138K vs WT; for IC50: ± SD, n=4
Method: as §1, §2, §3

[3] = tested on: HIV-1 RT mutant K101E/M184I; assay: single round infection assay, K101E/M184I; type: cell-based; conditions: for IC50: ± SD, n=4; for fold-change of IC50 of the mutant relative to WT: K101E/M184I vs WT
Method: as §1, §2, §3

[4] = tested on: HIV-1 RT mutant E138K/M184V; assay: single round infection assay, E138K/M184V; type: cell-based; conditions: for fold-change of IC50 of the mutant relative to WT: E138K/M184V vs WT; for IC50: ± SD, n=4
Method: as §1, §2, §3

HIV-1 RT mutant K101P = assay: single round infection assay, K101P; type: cell-based; conditions: for IC50: Human immunodeficiency virus 1
Method: as §1, §2, §3

[5] = tested on: HIV-1 RT mutant K101P/V179I; assay: single round infection assay, K101P/V179I; type: cell-based; conditions: for IC50: Human immunodeficiency virus 1
Method: as §1, §2, §3

WT HIV-1 = conditions: previous study; cited from earlier work
HIV-1 RT mutant L100I = tested on: HIV-1 RT mutant L100I; design: method as in PMID 23217210; conditions: previous study; cited from earlier work
HIV-1 RT mutant K103N = tested on: HIV-1 RT mutant K103N; design: method as in PMID 23217210; conditions: previous study; cited from earlier work
[6] = Human immunodeficiency virus 1, L100I/K103N
[7] = Human immunodeficiency virus 1, K101E
[8] = Human immunodeficiency virus 1, E138K
[9] = Human immunodeficiency virus 1, K101E/M184I
[10] = Human immunodeficiency virus 1, E138K/M184V

Structure (SMILES)	IC50 (HIV-1 RT mutant G190A) [nM]	IC50 (HIV-1 RT mutant M230L) [nM]	fold-change of IC50 of the mutant relative to WT (HIV-1 RT mutant M230L)	IC50 [1, 6] [nM]	fold-change of IC50 of the mutant relative to WT [1]	IC50 ([1]; L100I/K103N) [nM]	IC50 [2] [nM]	IC50 (HIV-1 RT mutant K101E; [7]) [nM]	fold-change of IC50 of the mutant relative to WT (HIV-1 RT mutant K101E)	fold-change of IC50 of the mutant relative to WT (HIV-1 RT mutant E138K)	IC50 (HIV-1 RT mutant E138K; E138K) [nM]	IC50 (HIV-1 RT mutant E138K; [8]) [nM]	IC50 [3, 9] [nM]	fold-change of IC50 of the mutant relative to WT [3]	fold-change of IC50 of the mutant relative to WT [4]	IC50 (HIV-1 RT mutant K101P) [nM]	IC50 [5] [nM]	IC50 (WT HIV-1) [nM]	IC50 (HIV-1 RT mutant L100I) [nM]	IC50 (HIV-1 RT mutant K103N) [nM]	also measured
Cc1cc(/C=C/C#N)cc(C)c1Nc1ncc([N+](=O)[O-])c(Nc2ccc(C#N)cc2)n1 [compound 8]	0.24 ± 0.04	11.9	7	< 5.4	3	5.4 ± 0.35	1.2 ± 0.33	10.1	6	2	3.4	< 6	< 6	4	< 2	9.9	29.8 ± 5.4	< 7	< 7	< 7	IC50 ([3]; K101E/M184I): 6 ± 1.6 nM; fold-change of IC50 of the mutant relative to WT (HIV-1 RT mutant K101P; K101P vs WT): 6; fold-change of IC50 of the mutant relative to WT ([5]; K101P/V179I vs WT): 19
Cc1cc(/C=C/C#N)cc(C)c1Nc1ncc(N)c(Nc2ccc(C#N)cc2)n1 [compound 9]	0.6	29.6	23	44.1	34	–	4.6 ± 0.3	< 6	3	4	5.6 ± 1.4	< 6	< 6	3	4	> 100	> 100	< 7	< 7	< 7	fold-change of IC50 of the mutant relative to WT [2]: 4; IC50 (HIV-1 RT mutant K101E; K101E): 4.1 ± 1.5 nM; IC50 ([3]; K101E/M184I): 3.3 ± 0.85 nM; IC50 ([4]; E138K/M184V): 5.5 ± 1 nM; IC50 [4, 10]: < 6 nM
COc1ccc(Cn2cnc3c(Nc4ccc(C#N)cc4)nc(Nc4c(C)cc(/C=C/C#N)cc4C)nc32)cc1 [compound 12]	0.9 ± 0.43	13.8	21	< 5.4	6	4.3 ± 2.6	3 ± 0.4	3.3 ± 0.3	5	12	–	7.8 ± 0.64	2.7 ± 0.71	4	7	> 100	> 100	< 7	< 7	< 7	fold-change of IC50 of the mutant relative to WT (HIV-1 RT mutant G190A; G190A vs WT): < 2; fold-change of IC50 of the mutant relative to WT [2]: 4; IC50 [4, 10]: 4.9 ± 0.99 nM
